The values below come from patent publication US9174980B2, “Heterocyclic compounds as inhibitors of leukotriene production” (Boehringer Ingelheim International GmbH, priority 2012, dated 2015).

Assay [1] deals with synthesis of LTB4 in human whole blood. The experiment in a line: Human whole blood assay (calcimycin-stimulated LTB4 synthesis). The assay is classed as cell-based. Particulars: read-out: Human Whole Blood LTB4 Assay for FLAP (IC50 nM). An outline of the steps:
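Readout: plasma LTB4 by antibody-based HTRF. Compound added to heparinized human whole blood, 15 min 37° C; calcimycin 20 μM final (PBS pH 7.4), 30 min 37° C; spun 1500×g 5 min, plasma taken.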

Assay [2] has as its target T1, recombinant human FLAP protein (Homo sapiens, UniProt P20292).
T1 construct: made in house; host or cells: Sf9 insect cells (membrane fraction, 100,000 x g pellet)
T1 sequence (P20292 1-161): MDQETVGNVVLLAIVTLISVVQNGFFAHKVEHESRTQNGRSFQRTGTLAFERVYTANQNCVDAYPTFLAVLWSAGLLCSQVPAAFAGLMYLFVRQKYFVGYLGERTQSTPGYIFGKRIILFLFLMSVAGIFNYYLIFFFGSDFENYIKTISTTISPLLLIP
Description: FLAP binding assay (Scintillation Proximity Assay, displacement of [125I]L-691,831). The note with it: read-out: Human FLAP SPA Binding (IC50 nM). An outline of the steps: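 Membranes from sf9 cells expressing recombinant human FLAP (5 μg/well) on WGA SPA beads were incubated with compound and 0.08 nM [125I]L-691,831 in Tris pH 7.5 binding buffer, shaken 2 h. Displacement read by scintillation proximity; non-specific binding set with 10 μM unlabelled L-691,831.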
For orientation: SPA uses beads or plates that emit light when radiolabelled molecules are held near them.

Like-named read-outs stand apart in the source and are kept apart here. Where only a bound is given, the exact number is not on record here.

One may read the IC50 as the concentration that gives 50% inhibition. `Cc1ccc(-c2cc(C3(c4ccc(-c5cnc(N)nc5)cc4)CCC3)no2)cn1` [Example 158, 5-(4-{1-[5-(6-methylpyridin-3-yl)-1,2-oxazol-3-yl]cyclobutyl}phenyl)pyrimidin-2-amine]: the 50% inhibitory concentration (IC50) in assay [1] (Homo sapiens) was 430 nM; in assay [2], 5.2 nM.
For the compound `COc1ccc(-c2nnc(C3(c4ccc(-c5cnc(N)nc5)cc4)CCC3)[nH]2)cn1` [Example 144, 5-(4-{1-[5-(6-methoxypyridin-3-yl)-4H-1,2,4-triazol-3-yl]cyclobutyl}phenyl)pyrimidin-2-amine], the IC50 in assay [1] (Homo sapiens) worked out at 2500 nM; in assay [2], 4 nM.
As to `CC(C)C(C)(c1ccc(-c2cnc(N)nc2)cc1)c1c[nH]c2cc(-c3nnc(N)o3)ccc12` (stereo not shown) [Example 65, 5-[3-[1-[4-(2-aminopyrimidin-5-yl)phenyl]-1,2-dimethyl-propyl]-1H-indol-6-yl]-1,3,4-oxadiazol-2-amine], the IC50 in assay [1] (Homo sapiens) came to 1800 nM; in assay [2], 0.57 nM.
As to `CC(C)C(C)(c1ccc(-c2cnc(N)nc2)cc1)c1nc2ccccc2o1` (stereo not shown) [Example 112, 5-{4-[2-(1,3-benzoxazol-2-yl)-3-methylbutan-2-yl]phenyl}pyrimidin-2-amine], the IC50 was 570 nM in assay [1] (Homo sapiens) and 3.2 nM in assay [2].
Take `CN(C)C(=O)Cn1cc(-c2coc([C@@](C)(c3ccc(-c4cnc(N)nc4)cc3)C3CC3)n2)cn1` [Example 195, 2-[4-(2-{(1R)-1-[4-(2-aminopyrimidin-5-yl)phenyl]-1-cyclopropylethyl}-1,3-oxazol-4-yl)-1H-pyrazol-1-yl]-N,N-dimethylacetamide]: the values for the IC50 in assay [1] (Homo sapiens) and in assay [2] were 280 nM and 18 nM, respectively.
The corresponding values for `CCC(C)(c1ccc(-c2cnc(N)nc2)cc1)c1c[nH]c2ccccc12` (stereo not shown) [Example 91, 5-{4-[2-(1H-indol-3-yl)butan-2-yl]phenyl}pyrimidin-2-amine] are 230 nM and 2.7 nM.
As to `CC(C)C(C)(c1ccc(-c2cnc(N)nc2)cc1)c1c[nH]c2c(C(=O)O)cccc12` (stereo not shown) [Example 84, 3-[1-[4-(2-aminopyrimidin-5-yl)phenyl]-1,2-dimethyl-propyl]-1H-indole-7-carboxylic acid], the IC50 in assay [1] (Homo sapiens) stood at 3000 nM; in assay [2], 0.7 nM.
The matching figures for `COc1ncccc1-c1nnc(C2(c3ccc(-c4cnc(N)nc4)cc3)CCC2)[nH]1` [Example 153, 5-(4-{1-[5-(2-methoxypyridin-3-yl)-4H-1,2,4-triazol-3-yl]cyclobutyl}phenyl)pyrimidin-2-amine]: 1100 nM and 3.1 nM.
Regarding `CCc1noc(CN(CC)C(=O)c2cccc3c(C4(c5ccc(-c6cnc(N)nc6)cc5)CCC4)c[nH]c23)n1` [Example 12, 3-{1-[4-(2-aminopyrimidin-5-yl)phenyl]cyclobutyl}-N-ethyl-N-[(3-ethyl-1,2,4-oxadiazol-5-yl)methyl]-1H-indole-7-carboxamide], the IC50 worked out at 680 nM in assay [1] (Homo sapiens) and 2.7 nM in assay [2].
The corresponding values for `Nc1ncc(-c2ccc(C3(c4nnc(-c5cccnc5)[nH]4)CCC3)cc2)cn1` [Example 102, 5-(4-{1-[5-(pyridin-3-yl)-4H-1,2,4-triazol-3-yl]cyclobutyl}phenyl)pyrimidin-2-amine] are 900 nM and 3.7 nM.
The matching figures for `Nc1ncc(-c2ccc(C3(c4c[nH]c5ccccc45)CCC3)cc2)cc1CO` [Example 118, [2-amino-5-[4-[1-(1H-indol-3-yl)cyclobutyl]phenyl]-3-pyridyl]methanol]: 69 nM and 1.6 nM.
The corresponding values for `Cn1cc(-c2[nH]c3ccccc3c2C2(c3ccc(-c4cnc(N)nc4)cc3)CCC2)cn1` [Example 189] are 280 nM and 5.3 nM.
Turning to `CC(C)C(C)(c1ccc(-c2cnc(N)nc2)cc1)c1c[nH]c2c(F)cccc12` (stereo not shown) [Example 59, 5-{4-[2-(7-fluoro-1H-indol-3-yl)-3-methylbutan-2-yl]phenyl}pyrimidin-2-amine], the IC50 in assay [1] (Homo sapiens) came to 330 nM; in assay [2] it was 0.65 nM.
The corresponding values for `Nc1ncc(-c2ccc(C3(c4c[nH]c5c(C(=O)NC6CCS(=O)(=O)C6)cccc45)CCC3)cc2)cn1` (stereo not shown) [Example 5, 3-{1-[4-(2-aminopyrimidin-5-yl)phenyl]cyclobutyl}-N-(1,1-dioxidotetrahydrothiophen-3-yl)-1H-indole-7-carboxamide] are 220 nM and 0.72 nM.
As for `COc1cncc(-c2ccc(C(C)(c3cn(Cc4ccccn4)c4ccccc34)C(C)C)cc2)c1` (stereo not shown) [Example 27, 3-{2-[4-(5-methoxypyridin-3-yl)phenyl]-3-methylbutan-2-yl}-1-(pyridin-2-ylmethyl)-1H-indole], the figures for the IC50 in assay [1] (Homo sapiens) and in assay [2] were 1800 nM and 20 nM, respectively.
The corresponding values for `CN(C)C(=O)Cn1cc(-c2cc(C(C)(c3ccc(-c4cnc(N)nc4)cc3)C3CC3)no2)cn1` (stereo not shown) [Example 183, 2-[4-(3-{1-[4-(2-aminopyrimidin-5-yl)phenyl]-1-cyclopropylethyl}-1,2-oxazol-5-yl)-1H-pyrazol-1-yl]-N,N-dimethylacetamide] are 200 nM and 9 nM.
On to `COc1nccc2c(C3(c4ccc(-c5cnc(N)nc5)cc4)CCC3)c[nH]c12` [Example 145, 5-{4-[1-(7-methoxy-1H-pyrrolo[2,3-b]pyridin-3-yl)cyclobutyl]phenyl}pyrimidin-2-amine], for which the IC50 in assay [1] was 150 nM; in assay [2], 1.7 nM.
On to `Cn1cc(C(c2ccc(-c3cnc(N)nc3)cc2)C(C)(C)C)c2ccccc21` (stereo not shown) [Example 154, 5-{4-[2,2-dimethyl-1-(1-methyl-1H-indol-3-yl)propyl]phenyl}pyrimidin-2-amine], for which the IC50 in assay [1] (Homo sapiens) was > 5000 nM; in assay [2], 22 nM.
For `CC(C)C(C)(c1ccc(-c2cnc(N)nc2)cc1)c1nc(-c2cccnc2)no1` (stereo not shown) [Example 101, 5-(4-{3-methyl-2-[3-(pyridin-3-yl)-1,2,4-oxadiazol-5-yl]butan-2-yl}phenyl)pyrimidin-2-amine], the IC50 in assay [1] (Homo sapiens) was found to be 1400 nM; in assay [2], 12 nM.
With `Nc1ncc(-c2ccc(C3(c4c[nH]c5ccccc45)CCOCC3)cc2)cn1` [Example 33, 5-{4-[4-(1H-indol-3-yl)tetrahydro-2H-pyran-4-yl]phenyl}pyrimidin-2-amine], the IC50 was > 5000 nM in assay [1] (Homo sapiens) and 290 nM in assay [2].
Regarding `Cn1cc(C(c2ccc(-c3cnc(N)nc3)nc2)C(C)(C)C)c2ccccc21` (stereo not shown) [Example 122, 5-{5-[2,2-dimethyl-1-(1-methyl-1H-indol-3-yl)propyl]pyridin-2-yl}pyrimidin-2-amine], the IC50 was > 5000 nM in assay [1] (Homo sapiens) and 75 nM in assay [2].
The matching figures for `CN(C)C(=O)Cn1cc(-c2cc([C@@](C)(c3ccc(-c4cnc(N)nc4)cc3)C3CC3)no2)cn1` [Example 197, 2-[4-(3-{(1R)-1-[4-(2-aminopyrimidin-5-yl)phenyl]-1-cyclopropylethyl}-1,2-oxazol-5-yl)-1H-pyrazol-1-yl]-N,N-dimethylacetamide]: 93 nM and 5.3 nM.
In the case of `COC(=O)c1ccc(C2(c3ccc(-c4cnc(N)nc4)cc3)CCC2)[nH]1` [Example 167, methyl 5-[1-[4-(2-aminopyrimidin-5-yl)phenyl]cyclobutyl]-1H-pyrrole-2-carboxylate], the IC50 came to 3200 nM in assay [1] (Homo sapiens) and 59 nM in assay [2].
The matching figures for `CN(C)CCn1cc(-c2cc(C(C)(c3ccc(-c4cnc(N)nc4)cc3)C3CC3)no2)cn1` (stereo not shown) [Example 187, 5-{4-[1-cyclopropyl-1-(5-{1-[2-(dimethylamino)ethyl]-1H-pyrazol-4-yl}-1,2-oxazol-3-yl)ethyl]phenyl}pyrimidin-2-amine]: 67 nM and 9.9 nM.
With `Nc1ncc(-c2ccc(C3(c4c[nH]c5c(C(=O)N6CCC(O)C6)cccc45)CCC3)cc2)cn1` (stereo not shown) [Example 107, (3-{1-[4-(2-aminopyrimidin-5-yl)phenyl]cyclobutyl}-1H-indol-7-yl)(3-hydroxypyrrolidin-1-yl)methanone], the figures for the IC50 in assay [1] (Homo sapiens) and in assay [2] were 180 nM and 1.2 nM, respectively.
In the case of `CC(C)C(C)(c1ccc(-c2cnc(N)nc2)cc1)c1nc(N2CCNCC2)no1` (stereo not shown) [Example 21, 5-[4-[1,2-dimethyl-1-(3-piperazin-1-yl-1,2,4-oxadiazol-5-yl)propyl]phenyl]pyrimidin-2-amine; formic acid], the IC50 in assay [1] (Homo sapiens) was 1600 nM; in assay [2], 38 nM.
The matching figures for `CN(C)C(=O)c1cccc2c(C3(c4ccc(-c5cnc(N)nc5)cc4)CCC3)c[nH]c12` [Example 7, 3-{1-[4-(2-aminopyrimidin-5-yl)phenyl]cyclobutyl}-N,N-dimethyl-1H-indole-7-carboxamide]: 210 nM and 2.1 nM.
`CC(C)[C@](C)(c1ccc(-c2cnc(N)nc2)nc1)c1cc(-c2cnn(C)c2)on1` [Example 191, 5-(5-{(2R)-3-methyl-2-[5-(1-methyl-1H-pyrazol-4-yl)-1,2-oxazol-3-yl]butan-2-yl}pyridin-2-yl)pyrimidin-2-amine]: the half-inhibitory concentration (IC50) was determined as 56 nM in assay [1] (Homo sapiens) and 7.5 nM in assay [2].
As for `Cc1nc(CNC(=O)c2cccc3c(C4(c5ccc(-c6cnc(N)nc6)cc5)CCC4)c[nH]c23)no1` [Example 9, 3-{1-[4-(2-aminopyrimidin-5-yl)phenyl]cyclobutyl}-N-[(5-methyl-1,2,4-oxadiazol-3-yl)methyl]-1H-indole-7-carboxamide], the half-inhibitory concentration (IC50) worked out at 27 nM in assay [1] (Homo sapiens) and 2.2 nM in assay [2].
